# Laboratory results reported in patent US20120321609A1, “METHOD OF TREATING PSYCHOLOGICAL DISORDERS” (priority 2011, published 2012).
# Ends that are not written are not given here.
# T1: CRFR1 (Homo sapiens, UniProt P34998)
# T1 construct: expressed in transfected cells; host or cells: HEK 293
# T1 sequence (P34998 24-415): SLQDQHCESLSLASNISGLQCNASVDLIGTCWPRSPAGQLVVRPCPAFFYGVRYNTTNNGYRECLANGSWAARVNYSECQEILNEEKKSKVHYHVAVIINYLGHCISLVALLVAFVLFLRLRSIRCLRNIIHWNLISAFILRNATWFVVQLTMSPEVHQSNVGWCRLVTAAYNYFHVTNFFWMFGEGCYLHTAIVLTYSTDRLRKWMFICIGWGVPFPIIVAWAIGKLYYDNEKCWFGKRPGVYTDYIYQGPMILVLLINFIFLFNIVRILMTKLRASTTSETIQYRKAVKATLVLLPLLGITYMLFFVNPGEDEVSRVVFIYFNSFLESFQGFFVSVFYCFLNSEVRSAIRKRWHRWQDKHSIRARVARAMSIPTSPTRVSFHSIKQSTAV
# B1: Rab11-S25N: dominant negative Rab11 protein inhibiting receptor recycling via slow recycling endosomes (protein, UniProt P62491 2-213, looked up, variant S25N)
# Ras-related protein Rab-11A: GTRDDEYDYLFKVVLIGDSGVGKNNLLSRFTRNEFNLESKSTIGVEFATRSIQVDGKTIKAQIWDTAGQERYRAITSAYYRGAVGALLVYDIAKHLTYENVERWLKELRDHADSNIVIMLVGNKSDLRHLRAVPTDEARAFAEKNGLSFIETSALDSTNVEAAFQTILTEIYRIVSQKQMSDRRENDMSPSNNVVPIHVPPTTENKPKVQCC
# B2: Dynamin I-K44A: dominant-negative inhibitor of clathrin-mediated endocytosis, expressed in cells (protein, UniProt Q05193 1-864, looked up, variant K44A)
# Dynamin-1: MGNRGMEDLIPLVNRLQDAFSAIGQNADLDLPQIAVVGGQSAGASSVLENFVGRDFLPRGSGIVTRRPLVLQLVNATTEYAEFLHCKGKKFTDFEEVRLEIEAETDRVTGTNKGISPVPINLRVYSPHVLNLTLVDLPGMTKVPVGDQPPDIEFQIRDMLMQFVTKENCLILAVSPANSDLANSDALKVAKEVDPQGQRTIGVITKLDLMDEGTDARDVLENKLLPLRRGYIGVVNRSQKDIDGKKDITAALAAERKFFLSHPSYRHLADRMGTPYLQKVLNQQLTNHIRDTLPGLRNKLQSQLLSIEKEVEEYKNFRPDDPARKTKALLQMVQQFAVDFEKRIEGSGDQIDTYELSGGARINRIFHERFPFELVKMEFDEKELRREISYAIKNIHGIRTGLFTPDMAFETIVKKQVKKIREPCLKCVDMVISELISTVRQCTKKLQQYPRLREEMERIVTTHIREREGRTKEQVMLLIDIELAYMNTNHEDFIGFANAQQRSNQMNKKKTSGNQDEILVIRKGWLTINNIGIMKGGSKEYWFVLTAENLSWYKDDEEKEKKYMLSVDNLKLRDVEKGFMSSKHIFALFNTEQRNVYKDYRQLELACETQEEVDSWKASFLRAGVYPERVGDKEKASETEENGSDSFMHSMDPQLERQVETIRNLVDSYMAIVNKTVRDLMPKTIMHLMINNTKEFIFSELLANLYSCGDQNTLMEESAEQAQRRDEMLRMYHALKEALSIIGDINTTTVSTPMPPPVDDSWLQVQSVPAGRRSPTSSPTPQRRAPAVPPARPGSRGPAPGPPPAGSALGGAPPVPSRPGASPDPFGPPPQVPSRPNRAPPGVPSRSGQASPSRPESPRPPFDL
# Key:
# mice [1] = assay: Elevated plus maze test (anxiety-related behaviour); assay type: in vivo, mouse; conditions: DOI 0.15 mg/kg i.p.; for entries to the closed arms of the plus maze: relative to vehicle
# Description: (§1) Male CD-1 mice were obtained from Charles River Canada (St. Constant, Quebec) at 50-60 days of age, and were acclimatized to the laboratory for approximately 30 days before serving as experimental subjects. Mice were housed four per cage, until the time of surgery, after which they were housed individually. The vivarium was maintained on a 12-h light/dark cycle in a temperature (21° C.) controlled room with food and water freely available. Mice were anesthetized using isoflurane and stereotaxic surgery (David Kopf Instruments Model 940) was performed to install a cannulae into the medial prefrontal cortex. A Guide cannulae (Plastics One In), situated according to the mouse atlas of Franklin and Paxinos at Lateral=0.32 mm, D/V=2.25 mm, A/P=+2.68 mm. A dummy cannula, was inserted flush with guide. Approximately 1 week after behavioral testing mice were perfused with 4% paraformaldehyde. Brains were subsequently sectioned at 14 microns and stained with Cresyl violet for probe placement verification. Only the data from mice with correct probe placements were used in the analysis of the behavioral tests.
# Drug diffusion was permitted for 5 min, and then after a further 5 min period mice were injected intraperotineally with DOI (Sigma) at a dose of 0.15 mg/kg or saline. Behavioral testing was conducted 15 min after the DOI treatment. In a second experiment the procedure was identical to that of the preceding study, except that mice were pretreated i.p. with either vehicle or 0.25 mg/kg of M100907 in a volume of 0.3 ml immediately prior to the DOI treatment. As in the preceding study mice were then tested in the elevated plus maze test (n=6-8)/group. Once again, data were obtained from videotapes and the researcher was blind as to the treatments mice had received.
# In an initial test, mice were placed in a 45×45 cm open field, with an inner square of 21×24×24 cm., for a 5 min period, during which the time to enter the center area, and the total time spent in the center portion of the arena was recorded. The plus maze test was then conducted 1 min after the open field assessment. Mice were individually placed in one of the enclosed arms of a plus-maze and the behavior of the animals was recorded over a 5 min period by a ceiling-mounted video camera. The amount of time spent in each of the arms, the number of arm entries (an arm entry was defined as all four of the paws being placed in an arm of the plus-maze). The elevated plus-maze had two arms enclosed by 21 cm high walls; whereas the remaining two arms were open (arms were 24.8 cm long×7.7 cm wide). The maze was situated in a dimly lit room, such that the closed arms were darkened, whereas open arms were somewhat illuminated. All behavioural experiments were blinded. All experiments complied with the guidelines set by the Canadian Council on Animal Care and were approved by the Carleton University Animal Care Committee.
# CRFR1 = molecular target: T1, CRFR1; assay: CRF-stimulated cAMP formation (cAMP-Glo) in HEK 293 cells with FLAG-5-HT2AR and HA-CRFR1; assay type: cell-based; conditions: 5-HT 10 μM pretreatment 30 min
# Description: Briefly, HEK 293 cells transiently expressing FLAG-5-HT2AR and HA-CRFR1 were seeded into 96-well plate (10,000 cells/well). Two days after transfection, cells were incubated in the absence or presence of 10 μM 5-HT in induction buffer [HBSS, 500 μM isobutyl-1-methylxanthine (IBMX)] for 30 minutes at 37° C. […] Following stimulation, cells were solubilized with cAMP-Glo lysis buffer for 15 minutes with gentle shaking at room temperature. Lysates were carefully transferred to a white opaque 96-well plate and cAMP-Glo Detection solution containing protein kinase A was added for 20 minutes at room temperature followed by addition of Kinase-Glo Reagent for 10 min. Luminescence was measured using a Victor Reader (Perkin-Elmer, Walthan, Mass.).
# mice [2] = assay: Open field test (anxiety-related behaviour); assay type: in vivo, mouse; conditions: 5 min test; CRF 1.5 μg into medial prefrontal cortex, DOI 0.15 mg/kg i.p.; vs vehicle-vehicle or single treatment
# Description: as §1, with “Brains were subsequently sectioned at 14 microns and stained with Cresyl violet for probe placement verification. Only the data from mice with correct probe placements were used in the analysis of the behavioral tests.” left out
# In an initial test, mice were placed in a 45×45 cm open field, with an inner square of 21×24×24 cm., for a 5 min period, during which the time to enter the center area, and the total time spent in the center portion of the arena was recorded. […] Mice were individually placed in one of the enclosed arms of a plus-maze and the behavior of the animals was recorded over a 5 min period by a ceiling-mounted video camera. […]
# mice [3] = assay: Elevated plus maze test (anxiety-related behaviour); assay type: in vivo, mouse; conditions: DOI doses 0.625 and 1.25; data not shown
# 5-HT2AR = molecular target: T2, 5-HT2AR (Homo sapiens, UniProt P28223); assay: 5-HT-stimulated inositol phosphate formation in HEK 293 cells transfected with FLAG-5-HT2AR and HA-CRFR1; assay type: cell-based; conditions: for effect on the CRFR1-dependent increase in 5-HT2AR-stimulated inositol phosphate formation following CRF pretreatment: CRF 500 nM 30 min, monensin 100 μM 30 min, Tat peptide 1 h pretreatment, or co-expressed dominant-negative protein
# T2 construct: expressed in transfected cells; host or cells: HEK 293
# T2 sequence (P28223 whole entry): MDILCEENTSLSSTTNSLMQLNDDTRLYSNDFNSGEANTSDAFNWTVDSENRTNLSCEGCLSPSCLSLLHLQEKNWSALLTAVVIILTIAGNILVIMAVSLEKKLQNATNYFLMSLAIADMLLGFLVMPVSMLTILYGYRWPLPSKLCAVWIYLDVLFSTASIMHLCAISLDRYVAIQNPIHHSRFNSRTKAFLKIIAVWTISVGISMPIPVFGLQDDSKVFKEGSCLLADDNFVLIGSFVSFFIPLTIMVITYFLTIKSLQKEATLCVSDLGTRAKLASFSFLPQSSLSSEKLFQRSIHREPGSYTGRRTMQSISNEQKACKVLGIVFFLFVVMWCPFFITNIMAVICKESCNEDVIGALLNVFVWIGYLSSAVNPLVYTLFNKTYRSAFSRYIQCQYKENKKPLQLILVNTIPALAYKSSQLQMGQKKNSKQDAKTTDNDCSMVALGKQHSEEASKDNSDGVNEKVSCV
# [4] = molecular target: endogenous CRFR1 of mouse prefrontal cortex (mouse) (UniProt P35347)
# HA-CRFR1 [5] = molecular target: HA-CRFR1
# HA-CRFR1 [6] = molecular target: HA-CRFR1; remark: listed apart in the source
# [7] = second experiment (M100907 study), CRF 1.5 μg mPFC, M100907 0.25 mg/kg i.p.
# [8] = first experiment, CRF 1.5 μg into medial prefrontal cortex
molecule,measurement,setting,value
COc1cccc([C@H](O)C2CCN(CCc3ccc(F)cc3)CC2)c1OC [M100907],frequency of open arm entries in the plus maze,mice [1]; [7],did not make any entries onto the open arm
same,latency to enter the open arms of the plus maze,mice [1]; [7],none of the mice entered the open arms
same,time spent in the closed arms of the plus maze,mice [1]; [7],increased
same,time spent in the open arms of the plus maze,mice [1]; [7],profoundly influenced
same,entries to the closed arms of the plus maze,mice [1]; [7],reduced the frequency of arm entries
"NCCc1c[nH]c2ccc(O)cc12 [5-HT, serotonin]",effect of pretreatment on CRFR1 responsiveness (CRFR1-mediated cAMP formation),CRFR1,had no effect
"COc1cc(CC(C)N)c(OC)cc1I (stereo not shown) [DOI, 2,5-dimethoxy-4-iodoamphetamine]",latency to enter an open arm of the plus maze,mice [1]; [8],modest reduction
same,number of entries into the closed arms of the plus maze,mice [1]; [8],did not vary
same,number of entries onto the open arms of the plus maze,mice [1]; [8],modest reduction
same,frequency of open arm entries in the plus maze,mice [1]; [7],neither CRF nor DOI alone affected the frequency of open arm entries
same,latency to enter the open arms of the plus maze,mice [1]; [7],did not influence the latencies
same,time spent in the closed arms of the plus maze,mice [1]; [7],unaffected
same,entries to the closed arms of the plus maze,mice [1]; [7],increased closed arm entries
same,latency to enter the center square of open field,mice [2],neither the CRF nor the DOI treatments alone influenced performance
same,arm entries at significantly higher doses of DOI,mice [3],elevated arm entries
CC[C@@]1([C@@H]2O[C@@H]([C@H]3O[C@@](O)(CO)[C@H](C)C[C@@H]3C)C[C@@H]2C)CC[C@H]([C@]2(C)CC[C@]3(C[C@H](O)[C@@H](C)[C@@H]([C@@H](C)[C@@H](OC)[C@H](C)C(=O)O)O3)O2)O1 [monensin],effect on the CRFR1-dependent increase in 5-HT2AR-stimulated inositol phosphate formation following CRF pretreatment,5-HT2AR,attenuated the increase in 5-HT2AR signaling
same,effect on 5-HT2AR signaling in the absence of CRF pretreatment,"5-HT2AR; monensin 100 μM for 30 min, no CRF",did not affect 5-HT2AR signaling
B1,effect on the CRFR1-dependent increase in 5-HT2AR-stimulated inositol phosphate formation following CRF pretreatment,5-HT2AR,"but not the overexpression of Rab11-S25N, blocked the increase"
"SEEPPISLDLTFHLLREVLEMARAEQLAQQAHSNRKLMEII (ligand, UniProt P06850 154-194, looked up, species assumed, ends and bridges not checked) [corticotropin releasing factor (CRF) peptide]",5-HT-stimulated inositol phosphate formation in prefrontal cortex slices,[4],2.3 fold
same,loss of cell surface HA-CRFR1 (flow cytometry),HA-CRFR1 [5],24%
same,cell surface expression of 5-HT2AR (biotinylation),HA-CRFR1 [6],3.7 fold
B2,effect on the CRFR1-dependent increase in 5-HT2AR-stimulated inositol phosphate formation following CRF pretreatment,5-HT2AR,completely eliminated
